BindingDB's records for doi:10.1021/jm00089a016 (Abbott Laboratories, 1992)

assay: In vitro intrinsic binding affinity at platelet activating factor receptor using rabbit platelet membranes

SMILES	Ki [µM]
C#CCN1CCC2=C(C1)c1c(O)cc(C(C)CCCc3ccc(F)cc3)cc1OC2(C)C (stereo unspecified)	3.25
CNC(=O)CN1CCC(C(C)(C)O)=C(c2c(O)cc(C(C)CCCc3ccc(F)cc3)cc2O)C1 (stereo unspecified)	23.5
CC1CSC2=C1c1c(O)cc(C(C)CCCc3ccc(F)cc3)cc1OC2(C)C (stereo unspecified)	43.8
CNC(=O)CCCN1CCC2=C(C1)c1c(O)cc(C(C)CCCc3ccc(F)cc3)cc1OC2(C)C (stereo unspecified)	20.7
COc1cc(C(C)CCCc2ccc(F)cc2)cc2c1C1=C(CCN(CCCCC(=O)O)C1)C(C)(C)O2 (stereo unspecified)	5.5
COc1cc(C(C)CCCc2ccc(F)cc2)cc2c1C1=C(CCN(CCCCCC(=O)O)C1)C(C)(C)O2 (stereo unspecified)	25
CNC(=O)CN1CCC2=C(C1)c1c(O)cc(C(C)CCCc3ccc(F)cc3)cc1OC2(C)C (stereo unspecified)	0.331
COc1cc(C(C)CCCc2ccc(F)cc2)cc2c1C1=C(CCN(CCC(=O)O)C1)C(C)(C)O2 (stereo unspecified)	4.4
CNC(=O)CN1CCC2=C(C1)c1c(OC)cc(C(C)CCCc3ccc(F)cc3)cc1OC2(C)C (stereo unspecified)	0.142
CNC(=O)CN1CCC2=C(C1)c1c(OCC(=O)O)cc(C(C)CCCc3ccc(F)cc3)cc1OC2(C)C (stereo unspecified)	0.925
COc1cc(C(C)CCCc2ccc(F)cc2)cc2c1C1=C(CCN(Cc3ccccn3)C1)C(C)(C)O2 (stereo unspecified)	4.21
CCCCCC(C)C(C)c1cc(O)c2c(c1)OC(C)(C)C1=C2CN(CC(=O)NC)CC1 (stereo unspecified)	3.68
CC(CCCc1ccc(F)cc1)c1cc(O)c2c(c1)OC(C)(C)C1=C2CN(C(=O)CO)CC1 (stereo unspecified)	20.5
CNC(=O)CN(C)CC1=CC(C)(C)Oc2cc(C(C)CCCc3ccc(F)cc3)cc(O)c21 (stereo unspecified)	1.57
CC(CCCc1ccc(F)cc1)c1cc(O)c2c(c1)OC(C)(C)C1=C2CN(CC(=O)N(C)C)CC1 (stereo unspecified)	15.8
CNC(=O)CN1CCC2=C(C1)c1c(O)cc(C(C)C)cc1OC2(C)C	9
